Drawing on US20240400518A1, “SOS1 INHIBITOR AND USE THEREOF” (KANAPH THERAPEUTICS INC., priority 2021, published 2024), this text covers IC50 for three compounds.

The target of one assay is T1, SOS1 (Homo sapiens, UniProt Q07889).
T1 construct: adding equal amounts of HIS—SOS1cat (160 nM; Cytoskeleton, US); His (N); purchased Cytoskeleton, US
T1 sequence (Q07889 564-1049 limits assumed): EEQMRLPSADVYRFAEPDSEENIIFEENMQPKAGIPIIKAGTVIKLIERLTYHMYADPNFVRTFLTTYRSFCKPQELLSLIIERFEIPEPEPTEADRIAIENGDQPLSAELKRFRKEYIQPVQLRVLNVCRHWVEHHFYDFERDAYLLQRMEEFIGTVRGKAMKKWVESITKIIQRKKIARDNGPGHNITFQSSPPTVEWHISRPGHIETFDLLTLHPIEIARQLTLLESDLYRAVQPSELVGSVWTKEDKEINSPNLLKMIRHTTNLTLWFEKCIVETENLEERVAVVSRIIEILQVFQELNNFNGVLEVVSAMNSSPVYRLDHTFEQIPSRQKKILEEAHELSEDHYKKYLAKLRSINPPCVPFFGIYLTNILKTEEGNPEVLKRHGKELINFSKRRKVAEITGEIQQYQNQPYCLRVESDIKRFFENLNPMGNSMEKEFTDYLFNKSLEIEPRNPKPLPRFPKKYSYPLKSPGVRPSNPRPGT
Nature of the assay: SOS-catalyzed nucleotide exchange assay (HTRF, SOS1-mediated GTP loading of KRAS G12D). Conditions: GST-KRAS G12D, HIS-SOS1cat, IC50 class. Type of assay: biochemical. On the procedure:
SOS1 activity was measured by SOS1-mediated GTP loading quantification of KRAS^G12D. GTP loaded KRAS^G12D was detected by HTRF (Homogeneous Time Resolved Fluorescence) using anti-GST terbium (Cisbio, France) as a donor and a fluorescence GTP analogue (EDA-GTP-DY-647P1, [DY-647P1 labeled 2′/3′-O-(2-aminoethyl-carbamoyl)guanosine-5′-triphosphate (Jena bioscience, Germany)]) as an acceptor.
Assay buffer was composed of 10 mM HEPES pH 7.4, 150 mM NaCl, 5 mM MgCl2, 1 mM DTT, 0.05% BSA Fraction V pH 7.0 (Sigma) and 0.0025% (v/v) Igepal (Sigma). KRAS^G12D working solution was prepared by adding equal amounts of GST-KRAS^G12D (100 nM) and anti-GST-terbium (2 nM; Cisbio, France) to the assay buffer and culturing on ice for 10 minutes. SOS1cat working solution was prepared by adding equal amounts of HIS—SOS1cat (160 nM; Cytoskeleton, US) and EDA-GTP-DY-647P1 (200 nM; Jena bioscience, Germany) to the assay buffer. Control solution was prepared by adding equal volumes of EDA-GTP-DY-647P1 and the assay buffer for normalization control to exclude GEF-independent GTP loading and background signals. In order to induce a reaction, 5 μL of the SOS1cat working solution or the control solution was injected into each well. 5 μL of a compound having various concentrations from 128 pM to 10 μM was added to wells containing the SOS1cat working solution and incubated at room temperature for 10 minutes to bind to SOS1.
10 μL of the KRAS^G12D solution was added to each well and incubated for 30 minutes at room temperature while shaking. HTRF was measured using a Thermo Varioskan (excitation 334 nm, emission 665 nm). The IC50 of each inhibitor was analyzed using Graphad Prism.
On the technique in general: In TR-FRET formats the signal depends on donor and acceptor labels being close together.

The target in the next assay is T2, KRAS^G12C::SOS1 (Homo sapiens, UniProt Q07889).
T2 construct: purchased CISBIO, FRANCE 64KRASG12PEH
T2 sequence (Q07889 1-1333): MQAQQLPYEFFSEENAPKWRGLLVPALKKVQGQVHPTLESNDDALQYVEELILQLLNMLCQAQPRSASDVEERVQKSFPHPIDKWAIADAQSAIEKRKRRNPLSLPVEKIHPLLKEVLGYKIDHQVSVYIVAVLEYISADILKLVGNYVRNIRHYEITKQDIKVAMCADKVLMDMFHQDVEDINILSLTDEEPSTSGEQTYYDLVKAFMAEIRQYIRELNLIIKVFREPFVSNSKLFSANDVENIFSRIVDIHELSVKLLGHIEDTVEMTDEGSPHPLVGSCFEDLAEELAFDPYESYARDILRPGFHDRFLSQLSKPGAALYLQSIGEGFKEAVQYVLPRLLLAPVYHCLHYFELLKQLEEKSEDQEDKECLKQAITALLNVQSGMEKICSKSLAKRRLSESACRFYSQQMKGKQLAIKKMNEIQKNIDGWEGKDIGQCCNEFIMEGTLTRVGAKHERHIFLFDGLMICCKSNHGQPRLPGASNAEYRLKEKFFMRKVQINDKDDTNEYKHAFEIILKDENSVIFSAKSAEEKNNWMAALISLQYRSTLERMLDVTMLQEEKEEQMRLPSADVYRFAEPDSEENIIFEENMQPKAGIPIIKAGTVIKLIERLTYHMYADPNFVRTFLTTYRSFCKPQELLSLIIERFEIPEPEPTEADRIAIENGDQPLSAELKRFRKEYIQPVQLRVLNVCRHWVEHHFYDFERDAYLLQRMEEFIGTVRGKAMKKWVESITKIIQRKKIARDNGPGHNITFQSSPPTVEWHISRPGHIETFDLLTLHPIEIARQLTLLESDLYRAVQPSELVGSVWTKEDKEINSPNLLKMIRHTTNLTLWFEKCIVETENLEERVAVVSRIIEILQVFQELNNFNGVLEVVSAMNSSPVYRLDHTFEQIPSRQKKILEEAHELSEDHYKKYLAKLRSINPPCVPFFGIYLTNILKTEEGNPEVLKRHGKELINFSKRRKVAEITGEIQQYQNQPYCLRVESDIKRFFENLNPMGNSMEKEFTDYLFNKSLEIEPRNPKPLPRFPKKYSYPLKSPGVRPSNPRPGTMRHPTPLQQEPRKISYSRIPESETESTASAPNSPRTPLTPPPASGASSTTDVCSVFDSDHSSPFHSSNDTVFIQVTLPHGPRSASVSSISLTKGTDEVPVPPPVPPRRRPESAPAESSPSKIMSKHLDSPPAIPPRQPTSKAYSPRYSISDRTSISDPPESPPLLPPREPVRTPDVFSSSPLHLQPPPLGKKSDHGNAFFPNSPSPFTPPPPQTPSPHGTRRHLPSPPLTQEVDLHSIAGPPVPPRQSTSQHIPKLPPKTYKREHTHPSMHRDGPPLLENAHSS
Nature of the assay: KRAS G12C::SOS1 protein-protein interaction (PPI) inhibition assay (HTRF binding kit). Conditions: max inhibitor concentration 3 μM, three replicates, IC50 class. On the procedure:
Protein-protein interaction between SOS1 and KRAS^G12C was detected using KRAS G12C/SOS1 binding kit from CISBIO (64KRASG12PEH, CISBIO, FRANCE) according to the manufacturer's assay method. Briefly, the maximum concentration of an inhibitor sample was set to be 3 μM, and the inhibitor sample was diluted 7 times by 1/3, and samples having a total of 8 concentrations were prepared. In HTRF (Homogeneous Time-Resolved Fluorescence) exclusive 96-well low-volume white plate (66PL96005, CISBIO, FRANCE), 2 μL of an inhibitor sample prepared for each concentration, 5 μL of a mixed solution of Tag1 labeled KRAS^G12C protein and GTP diluted with the dilution solution provided by the manufacturer, and 5 μL of Tag2 labeled SOS1 protein were mixed, and added with 8 μL of a diluted solution where anti-Tag1 KRAS^G12CXL665 (HTRF acceptor) labeled antibody and anti-Tag2 SOS1 Terbium cryptate (HTRF donor) labeled antibody were mixed in an equal ratio and cultured at room temperature for 2 hours.

Regarding `CC(=O)N1CCC(n2nc(C(=O)N[C@H](C)c3cc(N)cc(C(F)(F)F)c3)ccc2=O)CC1` [Example 118, 1-(1-acetylpiperidin-4-yl)-N-[(1R)-1-[3-amino-5-(trifluoromethyl)phenyl]ethyl]-6-oxo-1,6-dihydropyridazine-3-carboxamide], the half-maximal inhibitory concentration (IC50) against SOS1 lay in the range of 1000 to 10000 nM.

For the compound `C[C@@H](NC(=O)c1ccc(=O)n(-c2ccc(OC(F)(F)F)cc2)n1)c1cc(N)cc(C(F)(F)F)c1` [Example 154], the results for the half-maximal inhibitory concentration (IC50) at SOS1 and on KRAS^G12C::SOS1 were 1000 to 10000 nM and under 1000 nM, respectively.

On SOS1, `C[C@@H](NC(=O)c1ccc(=O)n(-c2cccc(-c3ccnn3C)c2)c1)c1cccc(C(F)(F)CO)c1F` [Example 78, N-[(1R)-1-[3-(1,1-difluoro-2-hydroxyethyl)-2-fluorophenyl]ethyl]-1-[3-(1-methyl-1H-pyrazol-5-yl)phenyl]-6-oxo-1,6-dihydropyridine-3-carboxamide] yielded a half-maximal inhibitory concentration (IC50) of under 1000 nM.

One may read the IC50 as the concentration needed to halve the response being measured. Low readings indicate higher potency, high ones lower potency.
